Test results published in the supplement of paper PMC10627819.

Legend:
S. aureus DSM 20231 = test: fitness (endpoint OD595 vs no drug) (fraction); higher = more growth
Method in brief: (§1)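 Bacterial growth was followed in 384-well plates seeded at OD595 0.01, with 30 µl per well, or 55 µl for S. pneumoniae, in TSB, LB Lennox or CY at 37 °C. OD595 was read every 30 min for 14 h, and each reading had the first reading subtracted as background. Fitness is the background-corrected optical density at entry into stationary phase divided by the robust mean of the no-drug control wells. This ratio is capped at 1.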

S. pneumoniae D39V = test: as above
Method in brief: as §1

CN(C)[C@@H]1C(O)=C(C(N)=O)C(=O)[C@@]2(O)C(O)=C3C(=O)c4c(O)ccc(Cl)c4[C@@](C)(O)[C@H]3C[C@@H]12 [Chlortetracycline] + Cn1nnc(-c2ccc(-c3ccc(N4C[C@H](CO)OC4=O)cc3F)cn2)n1 [Tedizolid]
S. aureus DSM 20231, first compound 0.006 µg/mL, one replicate
Details	fitness
partner 0.0625 µg/mL	0.696
partner 0.125 µg/mL	0.659
partner 0.25 µg/mL	0.361

fitness
Details	first compound 0.012 µg/mL	first compound 0.024 µg/mL	first compound 0.048 µg/mL	first compound 0.375 µg/mL	first compound 0.75 µg/mL	first compound 1.5 µg/mL
S. aureus DSM 20231, partner 0.0625 µg/mL	0.496	0.236	0.0517	–	–	–
S. aureus DSM 20231, partner 0.125 µg/mL	0.532	0.172	0.0562	–	–	–
S. aureus DSM 20231, partner 0.25 µg/mL	0.25	0.161	0.102	–	–	–
S. pneumoniae D39V, partner 0.03125 µg/mL	0.966	0.949	0.944	–	–	–
S. pneumoniae D39V, partner 0.0625 µg/mL	0.95	0.962	0.878	–	–	–
S. pneumoniae D39V, partner 0.125 µg/mL	0.795	0.789	0.845	0.0202	0.0366	0.0518
S. pneumoniae D39V, partner 0.25 µg/mL	–	–	–	0.0375	0.043	0.0385
S. pneumoniae D39V, partner 0.5 µg/mL	–	–	–	0.0294	0.0348	0.0435

CC(=O)Oc1ccccc1C(=O)O [Acetylsalicylic acid] + COc1c(N2C[C@@H]3CCCN[C@@H]3C2)c(F)cc2c(=O)c(C(=O)O)cn(C3CC3)c12 [Moxifloxacin]
fitness
Details	first compound 250 µg/mL	first compound 500 µg/mL	first compound 1000 µg/mL
S. aureus DSM 20231, partner 0.0075 µg/mL	0.799	0.703	0.577
S. aureus DSM 20231, partner 0.015 µg/mL	0.7	0.656	0.58
S. aureus DSM 20231, partner 0.03 µg/mL	0.649	0.623	0.578
S. pneumoniae D39V, partner 0.005 µg/mL	0.975	0.96	–
S. pneumoniae D39V, partner 0.01 µg/mL	0.98	0.987	0.812
S. pneumoniae D39V, partner 0.02 µg/mL	0.932	0.94	0.829
S. pneumoniae D39V, partner 0.0312 µg/mL	0.188	0.192	0.216
S. pneumoniae D39V, partner 0.0625 µg/mL	0.17	0.142	0.137
S. pneumoniae D39V, partner 0.125 µg/mL	0.0443	0.0397	0.0308

fitness, S. aureus DSM 20231, one replicate
Details	first compound 250 µg/mL	first compound 500 µg/mL	first compound 1000 µg/mL
partner 0.06 µg/mL	0.647	0.627	0.584
partner 0.12 µg/mL	0.532	0.536	0.529

CC(=O)Oc1ccccc1C(=O)O [Acetylsalicylic acid] + CC[C@H]1OC(=O)[C@H](C)[C@@H](O[C@H]2C[C@@](C)(OC)[C@@H](O)[C@H](C)O2)[C@H](C)[C@@H](O[C@@H]2O[C@H](C)C[C@H](N(C)C)[C@H]2O)[C@](C)(O)C[C@@H](C)CN(C)[C@H](C)[C@@H](O)[C@]1(C)O [Azithromycin]
fitness, S. aureus DSM 20231
Details	first compound 250 µg/mL	first compound 500 µg/mL	first compound 1000 µg/mL
partner 0.125 µg/mL	0.806	0.714	0.601
partner 0.25 µg/mL	0.83	0.748	0.614
partner 0.5 µg/mL	0.702	–	0.597
